Assay results from US10550165B2, “Peptide for inducing regeneration of tissue and use thereof” (STEMRIM INC., priority 2011, dated 2020).

Legend:
[1] = tested on: mouse bone marrow mesenchymal stem cell line (MSC-1 cells), PDGFRα-positive; experiment: Migration assay (Boyden / 48-well chemotaxis chamber) on bone marrow mesenchymal stem cell line MSC-1; assay type: cell-based
Summary of the method: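 Mouse MSC-1 cells (3×10^6 cells/ml in D-MEM with 10% FBS) loaded in the upper wells of a 48-well Boyden chamber with 8 μm polycarbonate membrane; mouse HMGB1 peptides or HEK293-made HMGB1 in lower wells at 100 μg/ml, 5 μM or 10 μM; PBS as negative control. After 4 h at 37° C, migrated cells were Diff-Quik stained.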

mouse keratinocytes = experiment: Migration assay on mouse keratinocytes; assay type: cell-based; settings: synthetic peptide, PDGFRα-negative cells, FIG. 12A
Procedure: Newborn C57/B16 mice were euthanized using isoflurane and carbon dioxide inhalation. Then, the mice were washed thoroughly with EtOH and PBS. The skin together with dermis was exfoliated and the blood was washed off with PBS. The exfoliated skin was placed in Dispase I (Sanko Junyaku Co., Cat: GD81060) at 4° C. for 16 hours. The epidermis and dermis were detached with forceps, and the epidermis was placed in trypsin (Nacalai tesque, Cat: 3554-64) at 37° C. for 10 minutes. When white turbidity began to appear, the reaction was stopped with S-MEM (GIBCO, Cat: 11380)/15% FBS(Ca-)P/S. The resulting cells were centrifuged at 160×G for 5 minutes, and suspended in CnT-07 medium (CELLnTEC, Cat: CnT-07 BM) and plated in a 10-cm dish. The cells were cultured under 5% CO2 at 37° C. and the medium was changed every three days. The cells were passaged when they reached 80% to 90% confluency. The cells were harvested from the dish using trypsin. After inactivation of trypsin with DMEM containing 10% FBS, a synthetic peptide consisting of the amino acid sequence of positions 1 to 34 (1-34) was examined for migration-promoting activity according to the migration assay method described above.

mouse skin fibroblasts = experiment: Migration assay on mouse skin fibroblasts; assay type: cell-based; settings: synthetic peptide, PDGFRα-positive cells, FIG. 13A
Procedure: Newborn C57/B16 mice were euthanized using isoflurane and carbon dioxide inhalation. Then, the mice were washed thoroughly with EtOH and PBS. The skin together with dermis was exfoliated and the blood was washed off with PBS. The exfoliated skin was cut into fine pieces with scissors. The skin pieces were placed in DMEM (Nacalai tesque, Cat: 08458-45) containing 0.2% collagenase (Roche, REF: 10103586001) and shaken at 37° C. for 30 minutes. The reaction was stopped with DMEM/30% FBS/P/S. The resulting cells were centrifuged at 160×G for 5 minutes and plated in a 10-cm dish. The cells were cultured under 5% CO2 at 37° C. and the medium was changed every three days. The cells were passaged when they reached 80% to 90% confluency. The cells were harvested from the dish using trypsin. After inactivation of trypsin with D-MEM containing 10% FBS, a synthetic peptide consisting of the amino acid sequence of positions 1 to 34 (1-34) was assessed for migration-promoting activity according to the migration assay method described above.

[2] = tested on: CD11b-negative, PDGFRα-positive cells (primary cultured bone marrow mesenchymal cells); experiment: Migration assay on primary cultured CD11b-negative, PDGFRα-positive bone marrow cells; assay type: cell-based, mouse; settings: peptide produced in HEK293, 40 μg/ml, FIG. 5
Procedure: Thigh and tibial bones were excised from donor mice: B6.129S4-Pdgfratm11(EGFP)Sor/J (PDGFRα-GFP Mouse). After removing attached muscles and other tissues, the bones were crushed finely and incubated with 0.2% collagenase (Roche, REF: 10103586001)/DMEM/2% FBS(filtrated) at 37° C. for 40 minutes. Then, cell aggregates and muscle tissues were removed by filtration through a 40-μm nylon mesh. After centrifugation at 1200 rpm for 10 minutes, the resulting cells were suspended in αMEM containing 10% FBS and 1% P/S and cultured in an incubator under 5% CO2 at 37° C. until they reached 100% confluence. The cells were harvested and the following experiment was carried out according to the protocol attached to CD11b MicroBeads (Miltenyi Biotec; order No: 130-049-601). The cells were adjusted to 10^7 cells/90 μl with PBS(−), and CD11b MicroBeads were added at 10 μl/10^7 cells. After 15 minutes of reaction at 4° C., the cells were washed twice and suspended in 500 μl of PBS(−). The tube was placed in AutoMACS separator and the cells were collected according to the separation program “Depletes”. The collected cells were plated onto an adherent cell culture dish. After adhesion, GFP fluorescence was observed using a fluorescence microscope. The above-described peptide 1-44 produced in HEK293 was tested for the migration-promoting activity using CD11b-negative cells. […]

[3] = 2 μM, area of migrated cells by image analysis, FIG. 10

Substance | migration-promoting activity ([1]; synthetic peptides, 100 μg/ml, positive control 1-215(HEK), FIG. 7) | migration-promoting activity on mouse keratinocytes (mouse keratinocytes) | migration-promoting activity on skin fibroblasts (mouse skin fibroblasts) | migration-promoting activity relative to the full-length HMGB1, compared per equal mass [1, 3] | migration-promoting activity relative to the full-length HMGB1, compared per equal mole [1, 3] | migration-promoting activity ([1]; protein and peptides produced using HEK293 (mouse HMGB1), 50 μg/ml, 4 h, FIG. 2A) | migration-promoting activity [2]
(1-34): synthetic peptide consisting of the amino acid sequence from positions 1 to 34 of HMGB1 (MGKGDPKKPRGKMSSYAFFVQTCREEHKKKHPDA; UniProt P09429 1-34, looked up, fragment) | activity comparable to or higher than that of the positive control | did not show migration-promoting activity | exhibited migration-promoting activity |  |  |  | 
1-44: peptide of positions 1 to 44 of mouse HMGB1, produced using HEK293 (MGKGDPKKPRGKMSSYAFFVQTCREEHKKKHPDASVNFSEFSKK; UniProt P63158 1-44, looked up, fragment) |  |  |  | about 8 times | about 1.6 times | showed migration-promoting activity | strong migration-promoting activity
